In patent US20220160686A1, “MACROCYCLIC AZOLOPYRIDINE DERIVATIVES AS EED AND PRC2 MODULATORS” (Fulcrum Therapeutics, Inc., priority 2019, published 2022):

Key:
[1] = molecular target: T1, biotinylated AVI-tagged EED (76-441) (Homo sapiens, UniProt O75530); test: EED binding SPR assay; conditions: 1:1 binding model; read-out: KD, equilibrium dissociation constant as measured by surface plasmon resonance (SPR)
T1 construct: GST (N, cleaved yes); made in house; host or cells: E. coli BL21(DE3), co-expressed with pGro7
Procedure, shortened: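 Biotinylated AVI-EED(76-441) from E. coli was captured on Biotin CAPture chips (2200–2400 RU) in 10 mM HEPES pH 7.4, 150 mM NaCl, 0.05% Tween 20 and 2% DMSO. Compounds were run at 7 concentrations (3-fold dilutions) with 90 s association and 180 s dissociation, chip at 25 °C. Data were fitted to a 1:1 binding model.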

[2] = molecular target: EZH2/PRC2 complex (Homo sapiens, UniProt O75530); test: Histone methyltransferase assay (radioisotope-based HotSpot); format: biochemical; conditions: EZH2/PRC2 complex 10 nM, core histone substrate 0.05 mg/ml, 3H-SAM 1 μM; read-out: IC50, inhibitory effects on the HMT enzyme
Description: Effect of compounds of the present disclosure on EZH2/PRC2 complex methyltransferase functional activity was measured using the radioisotope-based HotSpot assay described by Horiuchi, K. Y., et al. Assay Drug Dev Technol. 11(4):227-36 (2013). Briefly, compounds were prepared in a 10-point 3-fold serial dilution in DMSO from a 10 mM stock in ECHO qualified plate using Assist Plus (Integra Biosciences) liquid handler. […] Nanoliter quantities of each compound's concentration series were transferred into the enzyme/substrate mix using (Echo 550, LabCyte Inc. Sunnyvale, Calif.) acoustic dispenser and pre-incubated for 20 min at room temperature. The methylation reaction was initiated by the addition of 1 μl of 5 μM S-Adenosyl-L-[methyl-^3H]methionine (^3H-SAM) and incubated at 30° C. for 1 h. The final concentration of the EZH2/PRC2 complex, core histone substrate and ^3H-SAM were 10 nM, 0.05 mg/ml, and 1 μM respectively. The % activity of test samples were calculated with reference to positive (no compound) and negative (no EZH2/PRC2) controls on the plate using Excel (Microsoft). The resulting values were exported to Prism (GraphPad software) to generate concentration response curves and IC50 values using the four-parameter logistic equation.

Chain of EZH2/PRC2 complex (O75530 whole entry): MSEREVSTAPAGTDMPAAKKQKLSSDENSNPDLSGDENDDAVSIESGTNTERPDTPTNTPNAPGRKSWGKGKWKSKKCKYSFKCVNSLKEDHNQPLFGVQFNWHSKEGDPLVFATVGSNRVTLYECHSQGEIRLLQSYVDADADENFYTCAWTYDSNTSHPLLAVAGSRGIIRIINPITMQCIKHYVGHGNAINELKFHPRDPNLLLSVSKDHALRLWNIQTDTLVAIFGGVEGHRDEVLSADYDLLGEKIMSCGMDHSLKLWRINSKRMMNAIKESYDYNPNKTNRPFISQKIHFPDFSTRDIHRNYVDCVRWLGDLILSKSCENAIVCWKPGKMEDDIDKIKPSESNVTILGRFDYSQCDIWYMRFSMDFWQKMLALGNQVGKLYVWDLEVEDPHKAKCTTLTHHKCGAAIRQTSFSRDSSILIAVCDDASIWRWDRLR
Chain of EZH2/PRC2 complex (Q15910 whole entry partner): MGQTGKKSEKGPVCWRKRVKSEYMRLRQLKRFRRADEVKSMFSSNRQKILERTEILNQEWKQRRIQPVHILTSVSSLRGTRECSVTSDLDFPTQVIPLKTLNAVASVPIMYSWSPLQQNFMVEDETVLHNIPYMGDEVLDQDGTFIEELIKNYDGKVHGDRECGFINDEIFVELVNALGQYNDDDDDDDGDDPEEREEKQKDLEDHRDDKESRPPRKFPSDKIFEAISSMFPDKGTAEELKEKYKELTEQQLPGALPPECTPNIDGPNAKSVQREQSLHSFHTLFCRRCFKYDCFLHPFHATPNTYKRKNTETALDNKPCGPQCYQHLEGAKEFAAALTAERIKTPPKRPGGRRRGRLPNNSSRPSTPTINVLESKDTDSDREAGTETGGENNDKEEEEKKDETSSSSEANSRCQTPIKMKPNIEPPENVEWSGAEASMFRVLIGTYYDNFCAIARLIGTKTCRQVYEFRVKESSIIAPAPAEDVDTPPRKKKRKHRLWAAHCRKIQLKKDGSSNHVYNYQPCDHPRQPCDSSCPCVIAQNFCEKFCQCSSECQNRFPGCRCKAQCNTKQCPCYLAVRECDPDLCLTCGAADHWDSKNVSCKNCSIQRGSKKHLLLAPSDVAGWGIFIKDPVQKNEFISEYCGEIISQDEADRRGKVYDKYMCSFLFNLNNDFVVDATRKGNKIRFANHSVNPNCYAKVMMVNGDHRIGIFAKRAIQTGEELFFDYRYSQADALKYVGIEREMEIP
Chain of EZH2/PRC2 complex (Q15022 whole entry partner): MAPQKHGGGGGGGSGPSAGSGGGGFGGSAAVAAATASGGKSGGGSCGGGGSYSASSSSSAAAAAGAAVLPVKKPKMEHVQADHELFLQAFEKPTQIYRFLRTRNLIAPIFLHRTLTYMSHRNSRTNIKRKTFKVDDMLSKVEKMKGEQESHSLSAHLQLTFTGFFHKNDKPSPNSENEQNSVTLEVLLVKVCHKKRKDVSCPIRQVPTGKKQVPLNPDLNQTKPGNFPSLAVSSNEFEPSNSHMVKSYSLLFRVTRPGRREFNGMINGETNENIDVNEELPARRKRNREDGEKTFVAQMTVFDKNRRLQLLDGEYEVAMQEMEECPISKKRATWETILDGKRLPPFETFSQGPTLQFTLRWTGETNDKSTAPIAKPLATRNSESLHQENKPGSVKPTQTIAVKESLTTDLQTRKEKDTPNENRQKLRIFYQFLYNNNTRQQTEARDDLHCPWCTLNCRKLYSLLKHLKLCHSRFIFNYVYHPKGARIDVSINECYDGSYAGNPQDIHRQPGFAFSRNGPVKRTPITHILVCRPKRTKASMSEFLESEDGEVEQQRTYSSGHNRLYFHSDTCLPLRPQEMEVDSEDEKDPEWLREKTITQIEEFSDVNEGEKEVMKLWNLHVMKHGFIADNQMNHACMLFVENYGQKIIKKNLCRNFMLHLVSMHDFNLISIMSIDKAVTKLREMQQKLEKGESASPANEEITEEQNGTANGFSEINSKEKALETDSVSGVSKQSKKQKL
T1 sequence (O75530 76-441 limits assumed): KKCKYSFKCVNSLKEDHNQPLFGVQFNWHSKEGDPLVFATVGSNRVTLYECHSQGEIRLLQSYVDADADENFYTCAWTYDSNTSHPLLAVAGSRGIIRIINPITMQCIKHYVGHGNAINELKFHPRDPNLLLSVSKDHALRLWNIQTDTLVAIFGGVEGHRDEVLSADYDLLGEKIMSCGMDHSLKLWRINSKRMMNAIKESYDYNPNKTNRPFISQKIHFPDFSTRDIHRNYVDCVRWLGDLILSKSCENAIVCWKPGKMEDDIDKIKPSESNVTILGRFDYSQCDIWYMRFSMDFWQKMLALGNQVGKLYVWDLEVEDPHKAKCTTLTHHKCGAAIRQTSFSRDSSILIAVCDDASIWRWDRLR

Compound | Kd [1] [nM] | IC50 [2] [nM]
Cc1ncccc1-c1cc2c(n3cc(C(N)=O)nc13)NCc1c(F)ccc3c1[C@@H](CO3)CO2 [Compound 176, (S)-5-fluoro-12-(2-methylpyridin-3-yl)-6,7,15,15a-tetrahydro-1H-benzofuro[4,3-fg]imidazo[r,2′:1,6]pyrido[3,2-b][1,4]oxazonine-10-carboxamide] | 10 to 50 | 25 to 50
Cc1ncccc1-c1cc2c(n3cc(C#N)nc13)NCc1c(F)ccc3c1[C@@H](CO3)CO2 [Compound 186, (S)-5-fluoro-12-(2-methylpyridin-3-yl)-6,7,15,15a-tetrahydro-1H-benzofuro[4,3-fg]imidazo[1′,2′:1,6]pyrido[3,2-b][1,4]oxazonine-10-carbonitrile] | < 2.5 | < 25
Cc1ncoc1-c1cc2c(n3cnnc13)NCc1c(F)ccc3c1[C@@H](CO3)CO2 [Compound 189, (S)-12-fluoro-4-(4-methyloxazol-5-yl)-7a,8,13,14-tetrahydro-7H-[1,2,4]triazolo[4′,3′:1,6]pyrido[3,2-b]benzofuro[4,3-fg][1,4]oxazonine] | < 2.5 | < 25
Cn1nccc1-c1cc2c(n3cnnc13)NCc1c(F)ccc3c1C(CO3)CO2 (stereo not drawn) [Example 17] | < 2.5 | < 25
COc1ncc(-c2cc3c(n4cnnc24)NCc2c(F)ccc4c2[C@H](CO4)CO3)cn1 [Example 30] | < 2.5 | < 25
CS(=O)(=O)c1ccc(-c2cc3c(n4cnnc24)NCc2c(F)ccc4c2C(CO4)CO3)cc1 (stereo not drawn) [Example 36] | < 2.5 | < 25
CN(CC(F)(F)F)C(=O)c1cc2c(n3cnnc13)NCc1c(F)ccc3c1C(CO3)CO2 (stereo not drawn) [Example 38] | 2.5 to 5 | < 25
Cc1cc(C#N)ccc1-c1cc2c(n3cnnc13)NCc1c(F)ccc3c1[C@H](CO3)CO2 [Example 49] | < 2.5 | < 25
Cn1nc(C(F)(F)F)cc1-c1cc2c(n3cnnc13)NCc1c(F)ccc3c1[C@H](CO3)CO2 [Example 115] | < 2.5 | < 25
